#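 Assay format: 96-well plates, 48-hour exposure. Here, GI50 denotes the concentration required for 50% inhibition of growth. TGI denotes the concentration required for complete inhibition of growth.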
# Key:
# Test in all cases: NCI-60 cell line screen, 48 h
# 786-0 renal = test system: 786-0 renal
# A498 renal = test system: A498 renal
# A549 NSCLC = test system: A549 NSCLC
# ACHN renal = test system: ACHN renal
# BT-549 breast = test system: BT-549 breast
# CAKI-1 renal = test system: CAKI-1 renal
# CCRF-CEM leukemia = test system: CCRF-CEM leukemia
# COLO 205 colon = test system: COLO 205 colon
# DU-145 prostate = test system: DU-145 prostate
# EKVX NSCLC = test system: EKVX NSCLC
# HCC-2998 colon = test system: HCC-2998 colon
# HCT-116 colon = test system: HCT-116 colon
# HCT-15 colon = test system: HCT-15 colon
# HL-60(TB) leukemia = test system: HL-60(TB) leukemia
# HOP-62 NSCLC = test system: HOP-62 NSCLC
# HOP-92 NSCLC = test system: HOP-92 NSCLC
# HS 578T breast = test system: HS 578T breast
# HT29 colon = test system: HT29 colon
# IGROV1 ovarian = test system: IGROV1 ovarian
# K-562 leukemia = test system: K-562 leukemia
# KM12 colon = test system: KM12 colon
# LOX IMVI melanoma = test system: LOX IMVI melanoma
# M14 melanoma = test system: M14 melanoma
# MALME-3M melanoma = test system: MALME-3M melanoma
# MCF7 breast = test system: MCF7 breast
# MDA-MB-231 breast = test system: MDA-MB-231 breast
# MDA-MB-435 = test system: MDA-MB-435
# MOLT-4 leukemia = test system: MOLT-4 leukemia
# NCI-H226 lung = test system: NCI-H226 lung
# NCI-H23 lung = test system: NCI-H23 lung
# NCI-H460 lung = test system: NCI-H460 lung
# NCI-H522 lung = test system: NCI-H522 lung
# NCI/ADR-RES ovarian = test system: NCI/ADR-RES ovarian
# OVCAR-3 ovarian = test system: OVCAR-3 ovarian
# OVCAR-4 ovarian = test system: OVCAR-4 ovarian
# OVCAR-5 ovarian = test system: OVCAR-5 ovarian
# OVCAR-8 ovarian = test system: OVCAR-8 ovarian
# PC-3 prostate = test system: PC-3 prostate
# RPMI-8226 leukemia = test system: RPMI-8226 leukemia
# RXF 393 renal = test system: RXF 393 renal
# SF-268 CNS = test system: SF-268 CNS
# SF-295 CNS = test system: SF-295 CNS
# SF-539 CNS = test system: SF-539 CNS
# SK-MEL-28 melanoma = test system: SK-MEL-28 melanoma
# SK-MEL-5 melanoma = test system: SK-MEL-5 melanoma
# SK-OV-3 ovarian = test system: SK-OV-3 ovarian
# SN12C renal = test system: SN12C renal
# SNB-19 CNS = test system: SNB-19 CNS
# SR leukemia = test system: SR leukemia
# SW-620 colon = test system: SW-620 colon
# T-47D breast = test system: T-47D breast
# TK-10 renal = test system: TK-10 renal
# U251 CNS = test system: U251 CNS
# UACC-257 melanoma = test system: UACC-257 melanoma
# UACC-62 melanoma = test system: UACC-62 melanoma
# UO-31 renal = test system: UO-31 renal
# SK-MEL-2 melanoma = test system: SK-MEL-2 melanoma
# SNB-75 CNS = test system: SNB-75 CNS
structure (smiles),measurement,setting,value
Cc1cc(NCC2CC/C(=C\C=C\c3ccccc3)C2=O)no1 (stereo not drawn),TGI,786-0 renal,> 100 µM
same,TGI,A498 renal,> 100 µM
same,TGI,A549 NSCLC,> 100 µM
same,TGI,ACHN renal,> 100 µM
same,TGI,BT-549 breast,> 100 µM
same,TGI,CAKI-1 renal,> 100 µM
same,TGI,CCRF-CEM leukemia,> 100 µM
same,TGI,COLO 205 colon,> 100 µM
same,TGI,DU-145 prostate,> 100 µM
same,TGI,EKVX NSCLC,> 100 µM
same,TGI,HCC-2998 colon,> 100 µM
same,TGI,HCT-116 colon,> 100 µM
same,TGI,HCT-15 colon,> 100 µM
same,TGI,HL-60(TB) leukemia,> 100 µM
same,TGI,HOP-62 NSCLC,> 100 µM
same,TGI,HOP-92 NSCLC,> 100 µM
same,TGI,HS 578T breast,> 100 µM
same,TGI,HT29 colon,> 100 µM
same,TGI,IGROV1 ovarian,> 100 µM
same,TGI,K-562 leukemia,> 100 µM
same,TGI,KM12 colon,> 100 µM
same,TGI,LOX IMVI melanoma,> 100 µM
same,TGI,M14 melanoma,> 100 µM
same,TGI,MALME-3M melanoma,> 100 µM
same,TGI,MCF7 breast,> 100 µM
same,TGI,MDA-MB-231 breast,> 100 µM
same,TGI,MDA-MB-435,> 100 µM
same,TGI,MOLT-4 leukemia,> 100 µM
same,TGI,NCI-H226 lung,> 100 µM
same,TGI,NCI-H23 lung,> 100 µM
same,TGI,NCI-H460 lung,> 100 µM
same,TGI,NCI-H522 lung,> 100 µM
same,TGI,NCI/ADR-RES ovarian,> 100 µM
same,TGI,OVCAR-3 ovarian,> 100 µM
same,TGI,OVCAR-4 ovarian,> 100 µM
same,TGI,OVCAR-5 ovarian,> 100 µM
same,TGI,OVCAR-8 ovarian,> 100 µM
same,TGI,PC-3 prostate,> 100 µM
same,TGI,RPMI-8226 leukemia,88.8 µM
same,TGI,RXF 393 renal,> 100 µM
same,TGI,SF-268 CNS,> 100 µM
same,TGI,SF-295 CNS,> 100 µM
same,TGI,SF-539 CNS,> 100 µM
same,TGI,SK-MEL-28 melanoma,> 100 µM
same,TGI,SK-MEL-5 melanoma,> 100 µM
same,TGI,SK-OV-3 ovarian,> 100 µM
same,TGI,SN12C renal,> 100 µM
same,TGI,SNB-19 CNS,> 100 µM
same,TGI,SR leukemia,> 100 µM
same,TGI,SW-620 colon,> 100 µM
same,TGI,T-47D breast,> 100 µM
same,TGI,TK-10 renal,> 100 µM
same,TGI,U251 CNS,> 100 µM
same,TGI,UACC-257 melanoma,> 100 µM
same,TGI,UACC-62 melanoma,> 100 µM
same,TGI,UO-31 renal,> 100 µM
NC(=O)Oc1cc(OC(N)=O)cc(N(CCCl)CCCl)c1,GI50,786-0 renal,4.28 µM
same,TGI,786-0 renal,22.8 µM
same,GI50,A498 renal,12.4 µM
same,TGI,A498 renal,29.3 µM
same,GI50,A549 NSCLC,5.13 µM
same,TGI,A549 NSCLC,69 µM
same,GI50,BT-549 breast,7.93 µM
same,TGI,BT-549 breast,30.7 µM
same,GI50,CAKI-1 renal,2.97 µM
same,TGI,CAKI-1 renal,80.4 µM
same,GI50,CCRF-CEM leukemia,0.902 µM
same,TGI,CCRF-CEM leukemia,> 100 µM
same,GI50,COLO 205 colon,15.2 µM
same,TGI,COLO 205 colon,38.6 µM
same,GI50,DU-145 prostate,3.06 µM
same,TGI,DU-145 prostate,51.2 µM
same,GI50,HCC-2998 colon,16.9 µM
same,TGI,HCC-2998 colon,61.9 µM
same,GI50,HCT-116 colon,7.77 µM
same,TGI,HCT-116 colon,> 100 µM
same,GI50,HCT-15 colon,6.31 µM
same,TGI,HCT-15 colon,> 100 µM
same,GI50,HL-60(TB) leukemia,1.58 µM
same,TGI,HL-60(TB) leukemia,> 100 µM
same,GI50,HOP-62 NSCLC,20.9 µM
same,TGI,HOP-62 NSCLC,> 100 µM
same,GI50,HOP-92 NSCLC,0.849 µM
same,TGI,HOP-92 NSCLC,7.87 µM
same,GI50,HS 578T breast,23.2 µM
same,TGI,HS 578T breast,76.3 µM
same,GI50,HT29 colon,10.8 µM
same,TGI,HT29 colon,51.4 µM
same,GI50,IGROV1 ovarian,6.71 µM
same,TGI,IGROV1 ovarian,49 µM
same,GI50,K-562 leukemia,10 µM
same,TGI,K-562 leukemia,> 100 µM
same,GI50,KM12 colon,14.1 µM
same,TGI,KM12 colon,36.7 µM
same,GI50,LOX IMVI melanoma,2.3 µM
same,TGI,LOX IMVI melanoma,> 100 µM
same,GI50,M14 melanoma,5.74 µM
same,TGI,M14 melanoma,30.9 µM
same,GI50,MALME-3M melanoma,5.73 µM
same,TGI,MALME-3M melanoma,23.3 µM
same,GI50,MCF7 breast,1.09 µM
same,TGI,MCF7 breast,47.4 µM
same,GI50,MDA-MB-231 breast,25.9 µM
same,TGI,MDA-MB-231 breast,> 100 µM
same,GI50,MDA-MB-435,11.4 µM
same,TGI,MDA-MB-435,28.9 µM
same,GI50,MOLT-4 leukemia,2.18 µM
same,TGI,MOLT-4 leukemia,> 100 µM
same,GI50,NCI-H226 lung,14.9 µM
same,TGI,NCI-H226 lung,77.7 µM
same,GI50,NCI-H23 lung,6.12 µM
same,TGI,NCI-H23 lung,63 µM
same,GI50,NCI-H460 lung,0.748 µM
same,TGI,NCI-H460 lung,26.9 µM
same,GI50,NCI-H522 lung,2.08 µM
same,TGI,NCI-H522 lung,6.12 µM
same,GI50,NCI/ADR-RES ovarian,5.45 µM
same,TGI,NCI/ADR-RES ovarian,> 100 µM
same,GI50,OVCAR-3 ovarian,4.74 µM
same,TGI,OVCAR-3 ovarian,25.9 µM
same,GI50,OVCAR-4 ovarian,14.8 µM
same,TGI,OVCAR-4 ovarian,79.3 µM
same,GI50,OVCAR-5 ovarian,4.35 µM
same,TGI,OVCAR-5 ovarian,30 µM
same,GI50,OVCAR-8 ovarian,5.74 µM
same,TGI,OVCAR-8 ovarian,67.6 µM
same,GI50,PC-3 prostate,7.1 µM
same,TGI,PC-3 prostate,54.8 µM
same,GI50,RPMI-8226 leukemia,3.67 µM
same,TGI,RPMI-8226 leukemia,53.2 µM
same,GI50,RXF 393 renal,1.98 µM
same,TGI,RXF 393 renal,5.4 µM
same,GI50,SF-268 CNS,1.88 µM
same,TGI,SF-268 CNS,29.4 µM
same,GI50,SF-295 CNS,2.89 µM
same,TGI,SF-295 CNS,> 100 µM
same,GI50,SF-539 CNS,1.65 µM
same,TGI,SF-539 CNS,5.96 µM
same,GI50,SK-MEL-2 melanoma,15.6 µM
same,TGI,SK-MEL-2 melanoma,47.8 µM
same,GI50,SK-MEL-28 melanoma,15.7 µM
same,TGI,SK-MEL-28 melanoma,65.3 µM
same,GI50,SK-MEL-5 melanoma,6.93 µM
same,TGI,SK-MEL-5 melanoma,52.5 µM
same,GI50,SK-OV-3 ovarian,13.1 µM
same,TGI,SK-OV-3 ovarian,> 100 µM
same,GI50,SN12C renal,2.41 µM
same,TGI,SN12C renal,> 100 µM
same,GI50,SNB-19 CNS,10.6 µM
same,TGI,SNB-19 CNS,> 100 µM
same,GI50,SNB-75 CNS,2.71 µM
same,TGI,SNB-75 CNS,25.3 µM
same,GI50,SR leukemia,1.04 µM
same,TGI,SR leukemia,> 100 µM
same,GI50,SW-620 colon,7.59 µM
same,TGI,SW-620 colon,> 100 µM
same,GI50,T-47D breast,7.78 µM
same,TGI,T-47D breast,> 100 µM
same,GI50,TK-10 renal,19.3 µM
same,TGI,TK-10 renal,55.9 µM
same,GI50,U251 CNS,2.24 µM
same,TGI,U251 CNS,54.9 µM
same,GI50,UACC-257 melanoma,12.1 µM
same,TGI,UACC-257 melanoma,53.6 µM
same,GI50,UACC-62 melanoma,4.1 µM
same,TGI,UACC-62 melanoma,18.4 µM
same,GI50,UO-31 renal,2.57 µM
same,TGI,UO-31 renal,15.9 µM
